The source of these data is patent EP4079301A2, “COMPOSITIONS COMPRISING CANNABIDIOL AND, OPTIONALLY, BISABOLOL” (Symrise AG, priority 2021, dated 2022).

Common to all, as to format: cell-based
One series deals with epidermis and dermis. The series can be described thus: Control of cell viability of skin explants (Masson's trichrome staining, Goldner variant). As to conditions: for Cell viability Dermis / Cell viability Epidermis: explants. The protocol:
The explants were distributed into 3 batches as follows:
(§1) On day 0 (D0), D1, D4, D5 and D7, the product P was topically applied on the basis of 2 mg/cm^2 (± 2µL per explant) and spread using a small spatula. […] The culture medium was half renewed (1 ml per well) on D1, D4, D5 and D7.
(§2) On day 0 (D0), the 3 explants from the batch T0 were collected and cut into 2 parts: half was fixed in formalin buffered solution and half was frozen at -80°C. On D5 and D9, the 3 explants of each batch were collected and processed in the same way than on day 0; the fourth explants were kept frozen at -80°C. The culture media of all explants were collected on D1, D4, D5, D7 (1 ml per explant) and on day 9 (2 ml per explant) and stored at -20°C for cortisol dosage.
(§3) After fixation for 24 hours in buffered formalin solution, the samples were dehydrated and impregnated in paraffin using a Leica PEARL dehydration automat. The samples were then paraffin-embedded using a Leica EG 1160 embedding station. 5-µm-thick sections of formol fixed paraffin-embedded (FFPE) skin sections were realized using a Leica RM 2125 Minot-type microtome, and the sections were then mounted on Superfrost® Plus glass slides. The frozen samples were cut into 7-µm-thick sections using a Leica CM 3050 cryostat. Sections were then mounted on Superfrost® plus silanized glass slides. Microscopical observations were realized using a Leica DMLB, a BX43 or BX63 Olympus microscope. Pictures were digitized with an Olympus DP72 or DP74 camera and the cellSens dimension data storing software (Olympus).
The observation of the cell viability of the epidermis and dermis was performed after staining of formalin-fixed paraffin- embedded (FFPE) skin sections according to Masson's trichrome, Goldner variant.

In another series the test system is Cortisol. The series can be described thus: Cortisol competitive ELISA on explant culture media. The conditions noted are these: for Cortisol (ng/mL), Mean: released in BEM culture medium. The protocol: as §1, §2
Cortisol competitive assay was performed with human Cortisol ELISA kit (Enzo life sciences, ref. 25-0358-ADI-901-071). According to provider's guidelines, the culture media were diluted at 1/200 and the Cortisol standards were incubated for 2 hours at room temperature with a monoclonal antibody specific to Cortisol in a sample or an alkaline phosphatase molecule which has Cortisol covalently attached to it. […] The intensity of the bound yellow color is inversely proportional to the concentration of Cortisol in either standards or samples. Absorbance at 405 nm was measured using the M200Pro Tecan microplate reader and Magellan7 software. Cortisol assay was performed on culture BEM media on day 5 (pool of D1, D4, D5 culture media) and day 9 (pool of D7 and D9 culture media). The concentration of cortisol was expressed in ng/ml.

In another series the test system is Beta-endorphin. The series can be described thus: Beta-endorphin immunostaining of explant skin sections with image analysis. As to conditions: for Beta-endorphin in the epidermis (% surface), Average: image analysis. The protocol:
as §1, §2, §3
The immunostaining was assessed by microscopical observation and image analysis.
The images analyses were performed on all the images of each batch, according to the following method using cellSens software. The process is illustrated in Figure 2. For each batch of explants, the percentage of the region of interest covered by the staining (stained surface percentage) is determined by image analysis according to the previously described process.
The stained surface percentage (Surf%) for each treatment was compared to the untreated condition => P vs T.

The mark [1] stands for this setting: topical 2 mg/cm^2, day 5 (batch PJ5).
Where [2] appears, read: topical 2 mg/cm^2, day 9 (batch PJ9).

As for `C=C(C)[C@@H]1CCC(C)=C[C@H]1c1c(O)cc(CCCCC)cc1O` [Cannabidiol], the “Effect of product application on cell viability” value in the series on epidermis and dermis (D5, compared to the batch TJ5) was “no modification”; in the series on epidermis and dermis (D9, compared to the batch TJ9) it was “no modification”. Moreover, the “Cell viability Dermis” value in the series with epidermis and dermis (setting [1]) is listed as “good”; with epidermis and dermis (setting [2]), “good”. Also, the “Cell viability Epidermis” value in the series on epidermis and dermis (setting [1]) is “good”; in the series with epidermis and dermis (setting [2]), “fairly good”. The decrease of cortisol in the series with Cortisol (D5, compared to the batch TJ5) was found to be 24%; with Cortisol (D9, compared to the batch TJ9) it was 18%. In addition, the “Cortisol (ng/mL), Mean” value amounted to 246.5 ng/mL in the series with Cortisol (day 5 (pool of D1, D4, D5), batch PJ5); 255.1 ng/mL with Cortisol (day 9 (pool of D7 and D9), batch PJ9). For the same compound, the “Effect of product application on beta-endorphin expression (microscopical observation of staining in the epidermis)” value in the series with Beta-endorphin (D5, compared to the batch TJ5) is listed as “slight increase”; in the series with Beta-endorphin (D9, compared to the batch TJ9) it was “slight increase”. Besides, the “increase of beta-endorphin expression” value with Beta-endorphin (D5, compared to the batch TJ5, image analysis) is reported as 24%; in the series with Beta-endorphin (D9, compared to the batch TJ9, image analysis), 30%. Also, the “Beta-endorphin in the epidermis (% surface), Average” value in the series with Beta-endorphin (day 5 (batch PJ5)) is 33.1 % surface; with Beta-endorphin (day 9 (batch PJ9)), 12.5 % surface.
